In patent US20080275002A1, “Method for Treatment of Hepatic Cancer” (TAIHO PHARMACEUTICAL CO., LTD., priority 2005, published 2008):

Experiments:
[1] = system: advanced hepatocellular carcinoma; assay: Clinical study (Phase I/II) of oral TAC-101 in patients with advanced hepatocellular carcinoma; type: in vivo
From the text: Administrations were continued for patients without dose-limiting toxicities (DLT) and without aggravation of the cancer. […] Patients administered with the recommended dose in Phase I part were subjected to data analysis under assumption as Phase II part patients.
Specifically, after determination of the measurable lesions in each patient, the response was classified as complete response (CR), partial response (PR), minor response (MR), stabilization of the disease (SD), or progression of the disease (PD) for the efficacy evaluation.

lung cancer = details: high dose, 60 to 80 mg/day, patients with lung cancer; cited from earlier work
hepatic cancer = details: animal model of hepatic cancer; cited from earlier work
[2] = biological target: T1, retinoic acid receptor α (RAR-α) (Homo sapiens, UniProt P10276); details: activates transcription through the receptor; cited from earlier work
T1 sequence (P10276 1-462): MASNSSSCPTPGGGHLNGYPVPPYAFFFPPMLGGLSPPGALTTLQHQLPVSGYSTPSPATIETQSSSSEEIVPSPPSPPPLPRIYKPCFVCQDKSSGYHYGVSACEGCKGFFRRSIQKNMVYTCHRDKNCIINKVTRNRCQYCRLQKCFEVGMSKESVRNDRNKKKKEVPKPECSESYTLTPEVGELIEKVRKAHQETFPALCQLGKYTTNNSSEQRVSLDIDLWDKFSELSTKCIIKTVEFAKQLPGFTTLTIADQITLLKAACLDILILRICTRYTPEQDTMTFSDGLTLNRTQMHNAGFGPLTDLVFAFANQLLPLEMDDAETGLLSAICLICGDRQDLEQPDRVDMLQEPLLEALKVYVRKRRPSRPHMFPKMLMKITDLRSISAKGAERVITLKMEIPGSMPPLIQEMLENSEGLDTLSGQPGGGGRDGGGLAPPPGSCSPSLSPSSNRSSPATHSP

[3] = 20 mg/day, side effects approximately grade 2

C[Si](C)(C)c1cc(C(=O)Nc2ccc(C(=O)O)cc2)cc([Si](C)(C)C)c1 [TAC-101, 4-[3,5-Bis(trimethylsilyl)benzamido]benzoic acid]
therapy terminated because of grade 3 increase of aspartate aminotransferase (AST) ([1]; 20 mg/day): one
therapy terminated because of onset of grade 3 venous thrombosis embolism (VTE) ([1]; 20 mg/day): one
therapy terminated because of onset of grade 4 pulmonary embolism (PE) ([1]; 20 mg/day): one
patients developing dose-limiting toxicity (DLT) ([1]; 20 mg/day oral, among 7 patients, pancreatitis and fatigue): one
share of patients with TTF 12 weeks or longer ([1]; 20 mg/day, 9/21): 42%
PR or CR case (WHO criteria) ([1]; 20 mg/day, 21 evaluable patients): not observed
time to treatment failure (TTF) ([1]; 20 mg/day, all 21 patients): 6.6 weeks
patients to whom four or more courses were applicable, progress of the hepatic cancer significantly arrested ([1]; 20 mg/day, of 21 evaluable patients): 9 patients
patients with TTF 12 weeks or longer (progress arrested, no deterioration) ([1]; 20 mg/day, of 21 patients): 9 patients
AST increase, incidence [1, 3]: 14.3%
AST increase, number of patients [1, 3]: 4 patients
alanine aminotransferase (ALT), incidence [1, 3]: 14.3%
alanine aminotransferase (ALT), number of patients [1, 3]: 4 patients
anorexia, incidence [1, 3]: 10.7%
anorexia, number of patients [1, 3]: 3 patients
dermatitis, incidence [1, 3]: 21.4%
dermatitis, number of patients [1, 3]: 6 patients
fatigue, incidence [1, 3]: 32%
fatigue, number of patients [1, 3]: 9 patients
increased triglycerides, incidence [1, 3]: 28.6%
increased triglycerides, number of patients [1, 3]: 8 patients
myalgias, incidence [1, 3]: 28.6%
myalgias, number of patients [1, 3]: 8 patients
nausea, incidence [1, 3]: 14.3%
nausea, number of patients [1, 3]: 4 patients
maximum tolerance dose (MTD) ([1]; 14 days daily oral administration, 7 days withdrawal): 20 mg/day
deep vein thrombosis (DVT), dose-limiting toxicity (lung cancer): frequently induces deep vein thrombosis
tumor response (lung cancer): tumor reducing effects (PR and CR)
antitumor effects (hepatic cancer): demonstrated
binding to RAR-α [2]: binding selectively
